Assays:
Assay in all cases: relative viability (nuclei count vs DMSO), 5 days (fraction); higher = more cells survive
NPK76-II-72-1 = compound: CC1CC(=O)N(C2=CN=C(N=C2N1C3CCCC3)NC4=C(C=C(C=C4)C(=O)NC5CCN(CC5)C)OC)C [NPK76-II-72-1]
How it was run: (§1)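 MetaXpress counted nuclei in 4× images of lung cancer cell lines that had been fixed, permeabilised and Hoechst-stained in one step. Before that, cells in 1536-well plates were kept overnight at 37 °C, pinned with five √10-spaced library-drug doses on vehicle-anchored plates, and cultured 5 days without medium change. Viability takes treated-well nuclei over vehicle-well nuclei and uses the median across plates. Plates were accepted only at control CV below 25% and at least one doubling.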

BI-2536 = compound: CC[C@@H]1C(=O)N(C)c2cnc(Nc3ccc(C(=O)NC4CCN(C)CC4)cc3OC)nc2N1C1CCCC1 [BI-2536]
How it was run: as §1

BI-2536 + Bortezomib = compound: CC[C@@H]1C(=O)N(C)c2cnc(Nc3ccc(C(=O)NC4CCN(C)CC4)cc3OC)nc2N1C1CCCC1 [BI-2536] + CC(C)C[C@H](NC(=O)[C@H](Cc1ccccc1)NC(=O)c1cnccn1)B(O)O [Bortezomib] (partner 0.002 µM)
How it was run: (§2)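 Relative viability was taken as the ratio of nuclei in treated wells to nuclei in vehicle wells. Lung cancer cell lines in 1536-well plates received compounds by pin tool one day after seeding, either one drug alone or a fixed anchor-drug dose plus five library-drug doses (not always all listed) in √10 steps. Nuclei were counted on 4× images after 5 days of treatment, and values are medians of duplicate plates.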

[1] = compound: CC1CC(=O)N(C2=CN=C(N=C2N1C3CCCC3)NC4=C(C=C(C=C4)C(=O)NC5CCN(CC5)C)OC)C [NPK76-II-72-1] + Cc1nc(NC(=O)N2CCC[C@H]2C(N)=O)sc1-c1ccnc(C(C)(C)C(F)(F)F)c1 [Alpelisib] (partner 2 µM)
How it was run: as §2

Cell Line	relative viability (NPK76-II-72-1; 0.01 µM)	relative viability (NPK76-II-72-1; 0.03162 µM)	relative viability (NPK76-II-72-1; 0.1 µM)	relative viability (NPK76-II-72-1; 0.3162 µM)	relative viability (NPK76-II-72-1; 1 µM)	relative viability (BI-2536; 0.01 µM)	relative viability (BI-2536; 0.03162 µM)	relative viability (BI-2536; 0.1 µM)	relative viability (BI-2536; 0.3162 µM)	relative viability (BI-2536; 1 µM)	relative viability (BI-2536 + Bortezomib; first compound 0.01 µM)	relative viability (BI-2536 + Bortezomib; first compound 0.03162 µM)	relative viability (BI-2536 + Bortezomib; first compound 0.1 µM)	relative viability (BI-2536 + Bortezomib; first compound 0.3162 µM)	relative viability (BI-2536 + Bortezomib; first compound 1 µM)	relative viability ([1]; first compound 0.01 µM)	relative viability ([1]; first compound 0.03162 µM)	relative viability ([1]; first compound 0.1 µM)	relative viability ([1]; first compound 0.3162 µM)	relative viability ([1]; first compound 1 µM)
NCI-H1651	0.953	0.939	0.925	0.979	1.02	0.961	0.947	0.915	0.3	0.109	0.898	0.98	0.894	0.583	0.11	0.887	1.03	0.893	0.852	1.04
NCI-H1703	0.842	1.07	0.935	0.979	1.27	0.896	0.614	0.525	0.158	0.131	0.313	0.252	0.13	0.161	0.11	0.316	0.343	0.35	0.314	0.4
Calu-6	0.988	1.05	1.03	0.954	0.996	1.02	0.861	0.51	0.117	0.111	0.871	0.62	0.183	0.144	0.141	0.952	1.03	1.05	0.972	1.14
EBC-1	0.917	1.02	0.94	0.984	1.07	1.04	0.804	0.432	0.224	0.202	0.477	0.46	0.222	0.217	0.175	0.927	0.931	0.828	0.836	0.906
SW 1573	0.902	1	0.988	0.956	0.969	1.05	0.921	0.487	0.131	0.134	1.12	1.15	0.967	0.14	0.152	0.7	0.891	0.7	0.764	0.819
A-427	0.943	1.07	0.984	0.929	0.977	0.996	0.961	0.589	0.137	0.151	0.955	1.04	0.763	0.123	0.1	1.08	1.1	1.02	1.09	1.03
NCI-H2347	0.924	1.05	0.948	0.982	1.05	0.942	1.07	0.941	0.483	0.43	0.864	0.963	0.859	0.482	0.476	0.992	1	1.07	1.07	1.11
NCI-H1355	0.933	0.976	0.987	0.92	1.02	1.01	0.958	0.638	0.174	0.163	1.21	1.21	0.874	0.303	0.184	0.834	0.827	0.544	0.755	0.849
PC-3 [JPC-3]	1.02	1.11	0.945	1.08	1.07	1.07	0.99	0.751	0.281	0.282	0.799	0.93	0.834	0.5	0.233	1.01	0.949	0.987	0.985	1.09
NCI-H2228	0.945	0.974	1.08	0.883	1.06	0.972	0.991	0.279	0.142	0.228	1.13	0.911	0.16	0.198	0.187	0.595	0.81	0.555	0.733	0.807
HOP-62	0.935	1.02	0.937	0.875	1.05	1	1.07	0.775	0.194	0.155	0.603	1.34	0.329	0.114	0.103	1.08	0.999	0.871	1.1	1.12
HARA	0.922	0.987	0.845	0.924	1.05	1.01	1.15	0.823	0.141	0.159	1.19	1.27	0.751	0.0898	0.0779	0.783	0.975	0.822	0.523	0.983
NCI-H838	0.912	1.03	0.954	0.959	1.02	0.99	0.946	0.826	0.164	0.162	0.878	0.824	0.16	0.115	0.111	0.974	0.942	0.972	0.948	1.02
NCI-H1755	0.97	0.998	1	0.979	1.02	0.994	0.974	0.695	0.332	0.291	0.9	0.891	0.355	0.308	0.262	0.883	0.983	0.91	0.896	0.938
HCC-78	0.881	0.903	0.931	0.976	1	0.972	1.04	0.831	0.579	0.247	0.505	0.559	0.487	0.352	0.219	–	0.402	0.334	–	0.337
IA-LM	0.871	0.836	0.919	0.842	1.14	0.954	0.912	0.649	0.0924	0.061	0.772	0.623	0.0686	0.0705	0.0718	0.895	0.851	0.657	0.612	0.705

Cell Line	relative viability (NPK76-II-72-1; 0.01 µM)	relative viability (NPK76-II-72-1; 0.03162 µM)	relative viability (NPK76-II-72-1; 0.1 µM)	relative viability (NPK76-II-72-1; 0.3162 µM)	relative viability (NPK76-II-72-1; 1 µM)	relative viability (BI-2536; 0.01 µM)	relative viability (BI-2536; 0.03162 µM)	relative viability (BI-2536; 0.1 µM)	relative viability (BI-2536; 0.3162 µM)	relative viability (BI-2536; 1 µM)	relative viability (BI-2536 + Bortezomib; first compound 0.01 µM)	relative viability (BI-2536 + Bortezomib; first compound 0.03162 µM)	relative viability (BI-2536 + Bortezomib; first compound 0.1 µM)	relative viability (BI-2536 + Bortezomib; first compound 0.3162 µM)	relative viability (BI-2536 + Bortezomib; first compound 1 µM)	relative viability ([1]; first compound 0.01 µM)	relative viability ([1]; first compound 0.03162 µM)	relative viability ([1]; first compound 0.1 µM)	relative viability ([1]; first compound 0.3162 µM)	relative viability ([1]; first compound 1 µM)
NCI-H322M	0.908	0.997	1.01	0.999	1.01	0.99	0.889	0.725	0.497	0.298	1.32	1.22	1.34	1.34	0.311	0.781	0.73	0.766	0.922	0.818
NCI-H3122	0.97	1.01	0.988	1	1	0.992	0.942	0.243	0.173	0.145	0.982	1.01	0.43	0.231	0.242	0.709	0.724	0.789	0.838	0.776
COR-L23	0.977	1.06	0.998	1.01	1.01	1.09	1.13	0.333	0.136	0.135	1.08	0.901	0.27	–	0.101	0.638	0.821	0.815	0.815	0.822
NCI-H2087	0.98	1.03	0.868	0.889	1.05	1.11	1.06	0.607	0.105	0.133	0.858	0.677	0.693	0.128	0.139	1.1	1.1	1.07	1.01	1.48
LC-2-ad	1.01	0.996	0.952	1	0.978	0.954	0.703	0.222	0.211	0.215	1.06	0.923	0.112	0.124	0.104	0.845	0.921	0.838	0.936	1
NCI-H1915	0.984	1.1	1	0.882	0.996	0.977	0.932	0.544	0.0978	0.117	1.02	0.965	0.613	0.439	0.0752	1.07	1.06	1.05	1.01	1.1
NCI-H2023	0.904	1.05	1.07	0.941	0.96	0.954	0.909	0.266	0.0935	0.11	0.943	0.87	0.193	0.0834	0.0889	0.568	0.691	0.592	0.529	0.548
COR-L 105	0.976	0.932	0.977	0.878	0.965	0.904	0.909	0.665	0.252	0.343	0.764	0.761	0.344	0.245	0.237	0.908	0.907	1.13	0.905	1.13
RERF-LC-KJ	0.959	1.01	0.986	0.889	1.06	0.987	1.01	0.765	0.211	0.237	1.12	1.28	0.939	0.221	0.264	0.727	0.928	0.773	0.683	0.86
LXF-289	0.954	1.02	0.968	1.04	0.988	1.04	0.977	0.651	0.0735	0.0855	0.991	0.91	0.485	0.0621	0.0527	0.987	1.07	1.05	1.01	1.05
PC-14	0.94	1.05	0.992	0.997	1.04	0.998	0.926	0.681	0.0519	0.0481	0.851	0.835	0.665	0.0691	0.0558	0.943	0.956	0.946	0.916	1.04
NCI-H650	0.971	0.946	0.927	0.734	1.01	0.819	0.821	0.589	0.198	0.131	0.73	0.563	0.233	0.19	0.126	1.15	1.23	0.952	–	1.13
NCI-H1666	0.957	0.992	0.959	0.845	1.11	0.945	0.959	0.9	0.466	0.377	0.681	0.874	0.332	0.251	0.308	0.951	0.957	1.02	0.911	1.01
NCI-H2085	0.921	1.02	0.961	0.952	1	1.01	0.976	0.798	0.222	0.333	1.05	1.01	0.587	0.371	0.381	0.889	0.946	0.932	0.899	1
NCI-H1734	0.926	1.03	1	0.967	1.1	1.01	0.725	0.234	0.199	0.211	0.84	0.82	0.226	0.154	0.156	0.675	0.628	0.722	0.599	0.86
